In PubChem BioAssay AID1963962 (Molecular Pharmacology Branch, DTP, NCI, 2024):

Tested on: 967376-340-R-J2-PDC multicell spheroid viability
Assay: Anticancer human tumor 967376-340-R-J2-PDC patient-derived colon adenocarcinoma cell line growth inhibition [PI3K]
Details: for IC50: curve of first compound; for viability, T/C: stronger effect = lower value
Method in brief: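 Combination activity was assessed by viability in multicellular tumor spheroids carrying HUVEC and MSC components. Agents were tested with PI3K inhibitors from a Cmax-based top dose (or 10 microM) downward in half-log increments.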

[1] = second compound 0.0316 µM, first compound 0.0316 µM
[2] = second compound 0.0316 µM, first compound 0.1 µM
[3] = second compound 0.0316 µM, first compound 0.316 µM
[4] = second compound 0.0316 µM, first compound 1 µM
[5] = second compound 0.1 µM, first compound 0.0316 µM
[6] = second compound 0.1 µM, first compound 0.1 µM
[7] = second compound 0.1 µM, first compound 0.316 µM
[8] = second compound 0.1 µM, first compound 1 µM
[9] = second compound 0.316 µM, first compound 0.0316 µM
[10] = second compound 0.316 µM, first compound 0.1 µM
[11] = second compound 0.316 µM, first compound 0.316 µM
[12] = second compound 0.316 µM, first compound 1 µM
[13] = second compound 1 µM, first compound 0.0316 µM
[14] = second compound 1 µM, first compound 0.1 µM
[15] = second compound 1 µM, first compound 0.316 µM
[16] = second compound 1 µM, first compound 1 µM
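Further: spheroids exposed to agents for 7 days before read-out.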
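Wherever viability, T/C is given: luminescence used as surrogate of cell viability.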

In the case of `CCN1CCN(Cc2ccc(Nc3ncc(F)c(-c4cc(F)c5nc(C)n(C(C)C)c5c4)n3)nc2)CC1` + CC(Nc1ncnc2nc[nH]c12)c1cc2cccc(Cl)c2c(=O)n1-c1ccccc1, the IC50 (second compound 0.0316 µM) is reported as over 1000 nM, the IC50 (second compound 0.1 µM) is reported as over 1000 nM and the IC50 (second compound 0.316 µM) is reported as over 1000 nM. For the same molecule, the IC50 (second compound 1 µM) was over 1000 nM, the IC50 (second compound 3.16 µM) was over 1000 nM and the IC50 (second compound 10 µM) was over 1000 nM. It also gave a viability, T/C (second compound 0.0316 µM, first compound 0.00316 µM) of 93.1%, a viability, T/C (second compound 0.0316 µM, first compound 0.01 µM) of 95.1% and a viability, T/C [1] of 91.3%. The viability, T/C [2] was 73.8%, the viability, T/C [3] was 88.5% and the viability, T/C [4] was 70.1%. For the same molecule, the viability, T/C (second compound 0.1 µM, first compound 0.00316 µM) was 103%, the viability, T/C (second compound 0.1 µM, first compound 0.01 µM) was 106% and the viability, T/C [5] was 74.9%. The viability, T/C [6] was 87.9%, the viability, T/C [7] was 74.4% and the viability, T/C [8] was 86.8%. It also gave a viability, T/C (second compound 0.316 µM, first compound 0.00316 µM) of 113%, a viability, T/C (second compound 0.316 µM, first compound 0.01 µM) of 95.7% and a viability, T/C [9] of 100%. It also gave a viability, T/C [10] of 83.9%, a viability, T/C [11] of 79.5% and a viability, T/C [12] of 65.1%. The viability, T/C (second compound 1 µM, first compound 0.00316 µM) was 111%, the viability, T/C (second compound 1 µM, first compound 0.01 µM) was 87% and the viability, T/C [13] was 86.8%. The viability, T/C [14] was 80%, the viability, T/C [15] was 78.6% and the viability, T/C [16] was 58.6%. It also gave a viability, T/C (second compound 3.16 µM, first compound 0.00316 µM) of 95.7%, a viability, T/C (second compound 3.16 µM, first compound 0.01 µM) of 77.7% and a viability, T/C (second compound 3.16 µM, first compound 0.0316 µM) of 94.5%. For the same molecule, the viability, T/C (second compound 3.16 µM, first compound 0.1 µM) was 72.6%, the viability, T/C (second compound 3.16 µM, first compound 0.316 µM) was 75.9% and the viability, T/C (second compound 3.16 µM, first compound 1 µM) was 60%. For the same molecule, the viability, T/C (second compound 10 µM, first compound 0.00316 µM) was 92%, the viability, T/C (second compound 10 µM, first compound 0.01 µM) was 85.9% and the viability, T/C (second compound 10 µM, first compound 0.0316 µM) was 72%. It also gave a viability, T/C (second compound 10 µM, first compound 0.1 µM) of 62%, a viability, T/C (second compound 10 µM, first compound 0.316 µM) of 67.3% and a viability, T/C (second compound 10 µM, first compound 1 µM) of 48.6%.
`C#Cc1c(F)ccc2cc(O)cc(-c3ncc4c(N5CC6CCC(C5)N6)nc(OCC56CCCN5CC(F)C6)nc4c3F)c12` (centres undefined) + CC(Nc1ccc2c(c1)OCCn1cc(N3C(=O)OCC3C(F)F)nc1-2)C(N)=O showed an IC50 (second compound 0.00316 µM) of over 10000 nM, an IC50 (second compound 0.01 µM) of over 10000 nM and an IC50 (second compound 0.0316 µM) of over 10000 nM. It also gave an IC50 (second compound 0.1 µM) of over 10000 nM, an IC50 (second compound 0.316 µM) of over 10000 nM and an IC50 (second compound 1 µM) of 2260 nM. For the same molecule, the viability, T/C (second compound 0.00316 µM, first compound 0.0316 µM) was 115%, the viability, T/C (second compound 0.00316 µM, first compound 0.1 µM) was 99.1% and the viability, T/C (second compound 0.00316 µM, first compound 0.316 µM) was 72.3%. It also gave a viability, T/C (second compound 0.00316 µM, first compound 1 µM) of 68.5%, a viability, T/C (second compound 0.00316 µM, first compound 3.16 µM) of 94.5% and a viability, T/C (second compound 0.00316 µM, first compound 10 µM) of 65.7%. For the same molecule, the viability, T/C (second compound 0.01 µM, first compound 0.0316 µM) was 81.8%, the viability, T/C (second compound 0.01 µM, first compound 0.1 µM) was 86% and the viability, T/C (second compound 0.01 µM, first compound 0.316 µM) was 78.7%. It also gave a viability, T/C (second compound 0.01 µM, first compound 1 µM) of 87.5%, a viability, T/C (second compound 0.01 µM, first compound 3.16 µM) of 97.7% and a viability, T/C (second compound 0.01 µM, first compound 10 µM) of 59.6%. For the same molecule, the viability, T/C [1] was 78.5%, the viability, T/C [2] was 105% and the viability, T/C [3] was 71.6%. It also gave a viability, T/C [4] of 62.3%, a viability, T/C (second compound 0.0316 µM, first compound 3.16 µM) of 98.7% and a viability, T/C (second compound 0.0316 µM, first compound 10 µM) of 56.6%. The viability, T/C [5] was 79.7%, the viability, T/C [6] was 82% and the viability, T/C [7] was 86.6%. The viability, T/C [8] was 70.7%, the viability, T/C (second compound 0.1 µM, first compound 3.16 µM) was 62% and the viability, T/C (second compound 0.1 µM, first compound 10 µM) was 58.6%. It also gave a viability, T/C [9] of 55.1%, a viability, T/C [10] of 73.9% and a viability, T/C [11] of 63.8%. For the same molecule, the viability, T/C [12] was 60.7%, the viability, T/C (second compound 0.316 µM, first compound 3.16 µM) was 67.6% and the viability, T/C (second compound 0.316 µM, first compound 10 µM) was 45.5%. It also gave a viability, T/C [13] of 62.7%, a viability, T/C [14] of 58.6% and a viability, T/C [15] of 57.4%. For the same molecule, the viability, T/C [16] was 56.3%, the viability, T/C (second compound 1 µM, first compound 3.16 µM) was 47.8% and the viability, T/C (second compound 1 µM, first compound 10 µM) was 32.9%.
